Measurements taken from patent US6380146B1, “Bleaching detergent compositions” (priority 1999, dated 2002).
Where two headings read alike, the source gives them in different places.

Experiments:
[1] = system: phenol oxidizing enzyme from Acremonium murorum; assay: Bleaching of oily tomato stains on cotton swatches by phenol oxidizing enzyme/enhancer system; conditions: enhancer 250 μM, detergent formulation 2 g/l, pH 9, 30 min, 30° C.; for Stain bleach performance ΔE, Oily Tomato Stain, With enzyme: enzyme 20 mg/l; for Stain bleach performance ΔE, Oily Tomato Stain, Without enzyme: no enzyme
Description: (§1) The potential of the various enhancer to boost the bleach performance of phenol oxidizing enzyme was assessed by washing cotton swatches soiled with tomato stains. Two different bleach monitors were used:
Oily tomato stains were prepared by applying heated concentrated tomato paste, to which 5 wt % Soya oil was added, to cotton swatches.
(§2) The pH of the wash solution was set to pH 9. Purified phenol oxidizing enzyme from Acremonium murorum was added to the wash solution at 20 mg/l. […] The enhancers were all dosed at 250 μM. The wash solution was 50 mM Tris buffer.
(§3) The swatches were washed during 30 minutes, at 30° C. After the wash, the swatches were tumble-dried and the reflectance spectra were measured using a Minolta spectrometer. The color differences between the swatch before and after the wash data were expressed in the CIELAB L*a*b* color space. In this color space, L* indicates lightness and a* and b* are the chromaticity coordinates. Color differences between two swatches are expressed as ΔE, which is calculated from the following equation:
(§4) ΔE={square root over (ΔL^2[…] )}

[2] = system: phenol oxidizing enzyme from Acremonium murorum; assay: Dye damage of the phenol oxidizing enzyme/enhancer system on dyed swatches, 3 washes in Tris buffer; conditions: Tris buffer pH 8, enzyme 20 mg/l, enhancer 250 μM; for Color difference (ΔE) dyed swatch OO2 after 3 washes: Dyed Monitor OO2, 3 washes; for Color difference (ΔE) dyed swatch OO6 after 3 washes: Dyed Monitor OO6, 3 washes; for Color difference (ΔE) dyed swatch P10 after 3 washes: Dyed Monitor P10, 3 washes; for Color difference (ΔE) dyed swatch PO8 after 3 washes: Dyed Monitor PO8, 3 washes
Description: A number of colored swatches were washed to assess the degree to which the enzymatic bleach system provokes dye damage. […] The closed containers were agitated by putting them in a washing machine. The machine was run for 1 hour with the water heated to 40° C. […] The phenol oxidizing enzyme from Acremonium murorum (see above) was added to the wash solution at 20 mg/l. The enhancers were all dosed at 250 μM.

[3] = system: phenol oxidizing enzyme from Acremonium murorum
Excerpt: The bleaching detergent composition of the present invention comprise one or more surfactants, a phenol oxidizing enzyme and a compound which acts as enhancer for the phenol oxidizing enzyme, said composition having an Enhancer Index as herein defined of at least 12. The Enhancer Index is defined for the purpose of this invention as the ratio of the bleach effect on tomato stains to the colored monitor P10 (ΔEtomato stain/ΔEP10 colored monitor) , and is further illustrated in the Examples. […] Preferably, the Enhancer Index is at least 15, and in particular in the range of 15-50.
In order to express the potential of the various enhancers to provoke stain bleaching in the absence of dye damage, the ratio of bleach effect on the tomato stains to the colored monitor P10 was calculated (ΔEtomato stain/ΔEP10 colored monitor) . This ratio, when tomato extract is used as the stain, is referred to as the ‘Ehancer Index’.

[4] = system: phenol oxidizing enzyme from Acremonium murorum; assay: Dye damage of the phenol oxidizing enzyme/enhancer system on colored swatch P10, consecutive washes in detergent formulation; conditions: enzyme 20 mg/l, enhancer 250 μM, 40° C., 1 hour
Description: A number of colored swatches were washed to assess the degree to which the enzymatic bleach system provokes dye damage. Each swatch was subjected to 5 consecutive washes in a detergent formulation. The closed containers were agitated by putting them in a washing machine. The machine was run for 1 hour with the water heated to 40° C. The pH of the wash solution was set to pH 9. The phenol oxidizing enzyme from Acremonium murorum (see above) was added to the wash solution at 20 mg/l. The enhancers were all dosed at 250 μM.

[5] = system: phenol oxidizing enzyme from Acremonium murorum; conditions: enhancer 250 μM, detergent formulation 2 g/l, pH 9, 30 min, 30° C.; for Stain bleach performance ΔE, Tomato Extract, With enzyme: enzyme 20 mg/l; for Stain bleach performance ΔE, Tomato Extract, Without enzyme: no enzyme
Description: as §1
Tomato extract material was prepared by acetone extraction of the chromophores from concentrated tomato paste. For the preparation of the stains, the colored acetone solution was applied to cotton swatches
as §2, §3, §4

[6] = ΔE oily tomato stain/ΔE P10, 50 mM Tris buffer solution
[7] = ΔE oily tomato stain/ΔE P10, detergent formulation
[8] = ΔE tomato extract/ΔE P10, 50 mM Tris buffer solution
[9] = ΔE tomato extract/ΔE P10, detergent formulation

O=C(O)CCN1c2ccccc2Sc2ccccc21 [PTP, Phenothiazine-10-propionate] was tested. Which “Stain bleach performance ΔE, Oily Tomato Stain, With enzyme” value [1] did it give?
Its value is 9.41.

And the “Stain bleach performance ΔE, Oily Tomato Stain, Without enzyme” value [1]?
Its value is 8.54.

What about the “Color difference (ΔE) dyed swatch OO2 after 3 washes” value [2] of the same molecule?
Its value is 6.34.

And the “Color difference (ΔE) dyed swatch OO6 after 3 washes” value [2]?
Its value is 15.64.

And the “Color difference (ΔE) dyed swatch P10 after 3 washes” value [2]?
The value was 9.66.

And the “Color difference (ΔE) dyed swatch PO8 after 3 washes” value [2]?
The value was 12.57.

What about the “Ratio Bleach on Stain Monitor/Dye Damage, Oily Tomato Stain” value [3, 6] of the same molecule?
Its value is 0.69.

What about the “Ratio Bleach on Stain Monitor/Dye Damage, Oily Tomato Stain” value [3, 7] of the same molecule?
The value was 2.89.

What about the “Ratio Bleach on Stain Monitor/Dye Damage, Tomato Extract (Enhancer Index)” value [3, 8] of the same molecule?
Its value is 3.59.

What about the “Ratio Bleach on Stain Monitor/Dye Damage, Tomato Extract (Enhancer Index)” value [3, 9] of the same molecule?
Its value is 10.35.

And the “Color difference (ΔE) original P10 swatch vs after 1st wash” value [4]?
The value was 0.51.

And the “Color difference (ΔE) original P10 swatch vs after 2nd wash” value [4]?
The value was 0.78.

What about the “Color difference (ΔE) original P10 swatch vs after 3rd wash” value [4] of the same molecule?
The value was 1.79.

And the “Color difference (ΔE) original P10 swatch vs after 4th wash” value [4]?
The value was 2.63.

What about the “Color difference (ΔE) original P10 swatch vs after 5th wash” value [4] of the same molecule?
Its value is 3.25.

And the “Stain bleach performance ΔE, Tomato Extract, With enzyme” value [5]?
Its value is 33.66.

What about the “Stain bleach performance ΔE, Tomato Extract, Without enzyme” value [5] of the same molecule?
The value was 12.00.

Which results are given for O=S(=O)(Nc1cc(Br)c(O)c(Br)c1Br)c1ccccc1 [Enhancer 3BrphenolBSA, N-(2,3,5-tribromo-4-hydroxyphenyl)-Benzenesulfonamide]?
Stain bleach performance ΔE, Oily Tomato Stain, With enzyme [1]: 10.95; Stain bleach performance ΔE, Oily Tomato Stain, Without enzyme [1]: 6.89; Color difference (ΔE) dyed swatch OO2 after 3 washes [2]: 0.47; Color difference (ΔE) dyed swatch OO6 after 3 washes [2]: 4.45; Color difference (ΔE) dyed swatch P10 after 3 washes [2]: 1.00; Color difference (ΔE) dyed swatch PO8 after 3 washes [2]: 1.45; Ratio Bleach on Stain Monitor/Dye Damage, Oily Tomato Stain [3, 6]: 5.62; Ratio Bleach on Stain Monitor/Dye Damage, Oily Tomato Stain [3, 7]: 6.18; Ratio Bleach on Stain Monitor/Dye Damage, Tomato Extract (Enhancer Index) [3, 8]: 19.97; Ratio Bleach on Stain Monitor/Dye Damage, Tomato Extract (Enhancer Index) [3, 9]: 15.18; Color difference (ΔE) original P10 swatch vs after 1st wash [4]: 1.69; Color difference (ΔE) original P10 swatch vs after 2nd wash [4]: 1.17; Color difference (ΔE) original P10 swatch vs after 3rd wash [4]: 1.20; Color difference (ΔE) original P10 swatch vs after 4th wash [4]: 1.55; Color difference (ΔE) original P10 swatch vs after 5th wash [4]: 1.77; Stain bleach performance ΔE, Tomato Extract, With enzyme [5]: 26.87; Stain bleach performance ΔE, Tomato Extract, Without enzyme [5]: 12.99

With Cc1ccc(S(=O)(=O)Nc2cc(Br)c(O)c(Br)c2Br)cc1 [3Brphenol3MeBSA, N-(2,3,5-tribromo-4-hydroxyphenyl)-4-Methyl Benzenesulfonamide] as the molecule, how does the “Stain bleach performance ΔE, Oily Tomato Stain, With enzyme” value [1] read?
The value was 11.71.

What about the “Stain bleach performance ΔE, Oily Tomato Stain, Without enzyme” value [1] of the same molecule?
The value was 6.87.

And the “Color difference (ΔE) dyed swatch OO2 after 3 washes” value [2]?
Its value is 0.41.

What about the “Color difference (ΔE) dyed swatch OO6 after 3 washes” value [2] of the same molecule?
Its value is 4.59.

What about the “Color difference (ΔE) dyed swatch P10 after 3 washes” value [2] of the same molecule?
Its value is 0.96.

What about the “Color difference (ΔE) dyed swatch PO8 after 3 washes” value [2] of the same molecule?
Its value is 1.52.

And the “Ratio Bleach on Stain Monitor/Dye Damage, Oily Tomato Stain” value [3, 6]?
Its value is 6.46.

And the “Ratio Bleach on Stain Monitor/Dye Damage, Oily Tomato Stain” value [3, 7]?
Its value is 6.29.

And the “Ratio Bleach on Stain Monitor/Dye Damage, Tomato Extract (Enhancer Index)” value [3, 8]?
Its value is 20.40.

What about the “Ratio Bleach on Stain Monitor/Dye Damage, Tomato Extract (Enhancer Index)” value [3, 9] of the same molecule?
The value was 14.82.

What about the “Color difference (ΔE) original P10 swatch vs after 1st wash” value [4] of the same molecule?
Its value is 0.93.

What about the “Color difference (ΔE) original P10 swatch vs after 2nd wash” value [4] of the same molecule?
The value was 0.98.

And the “Color difference (ΔE) original P10 swatch vs after 3rd wash” value [4]?
Its value is 1.10.

What about the “Color difference (ΔE) original P10 swatch vs after 4th wash” value [4] of the same molecule?
Its value is 1.62.

What about the “Color difference (ΔE) original P10 swatch vs after 5th wash” value [4] of the same molecule?
The value was 1.86.

What about the “Stain bleach performance ΔE, Tomato Extract, With enzyme” value [5] of the same molecule?
Its value is 27.57.

What about the “Stain bleach performance ΔE, Tomato Extract, Without enzyme” value [5] of the same molecule?
Its value is 12.86.

CCn1c(=NN=c2sc3cc(S(=O)(=O)O)ccc3n2CC)sc2cc(S(=O)(=O)O)ccc21 [ABTS] was tested. Which “Stain bleach performance ΔE, Oily Tomato Stain, With enzyme” value [1] did it give?
Its value is 27.53.

What about the “Stain bleach performance ΔE, Oily Tomato Stain, Without enzyme” value [1] of the same molecule?
Its value is 8.67.

What about the “Color difference (ΔE) dyed swatch OO2 after 3 washes” value [2] of the same molecule?
Its value is 3.47.

What about the “Color difference (ΔE) dyed swatch OO6 after 3 washes” value [2] of the same molecule?
The value was 19.70.

And the “Color difference (ΔE) dyed swatch P10 after 3 washes” value [2]?
Its value is 12.18.

What about the “Color difference (ΔE) dyed swatch PO8 after 3 washes” value [2] of the same molecule?
The value was 24.02.

What about the “Ratio Bleach on Stain Monitor/Dye Damage, Oily Tomato Stain” value [3, 6] of the same molecule?
The value was 2.66.

And the “Ratio Bleach on Stain Monitor/Dye Damage, Oily Tomato Stain” value [3, 7]?
Its value is 4.22.

What about the “Ratio Bleach on Stain Monitor/Dye Damage, Tomato Extract (Enhancer Index)” value [3, 8] of the same molecule?
The value was 2.93.

What about the “Ratio Bleach on Stain Monitor/Dye Damage, Tomato Extract (Enhancer Index)” value [3, 9] of the same molecule?
Its value is 5.76.

What about the “Color difference (ΔE) original P10 swatch vs after 1st wash” value [4] of the same molecule?
The value was 1.61.

What about the “Color difference (ΔE) original P10 swatch vs after 2nd wash” value [4] of the same molecule?
The value was 1.51.

And the “Color difference (ΔE) original P10 swatch vs after 3rd wash” value [4]?
The value was 3.29.

And the “Color difference (ΔE) original P10 swatch vs after 4th wash” value [4]?
The value was 4.99.

What about the “Color difference (ΔE) original P10 swatch vs after 5th wash” value [4] of the same molecule?
Its value is 6.52.

What about the “Stain bleach performance ΔE, Tomato Extract, With enzyme” value [5] of the same molecule?
The value was 37.56.

And the “Stain bleach performance ΔE, Tomato Extract, Without enzyme” value [5]?
Its value is 11.12.
